# Assay results taken from patent US20260049076A1, “Tertiary Amine Substituted Bicyclic Compounds Useful as T Cell Activators” (BRISTOL-MYERS SQUIBB COMPANY, priority 2022, published 2026).
# Columns and labels:
# human DGKζ = molecular target: T1, human DGKζ (Homo sapiens, UniProt Q13574); experiment: In vitro DGK inhibition assay, DGKζ liposome (LIPGLO) assay; format: biochemical; conditions: read-out: Enzyme Inhibition DGKzeta IC50
# T1 construct: TVMV protease cleavage site (C); Hexa-His (C); made in house; host or cells: Sf9 insect cells (baculovirus)
# T1 sequence (Q13574 with tags, fused parts or gaps isoform Q13574-4): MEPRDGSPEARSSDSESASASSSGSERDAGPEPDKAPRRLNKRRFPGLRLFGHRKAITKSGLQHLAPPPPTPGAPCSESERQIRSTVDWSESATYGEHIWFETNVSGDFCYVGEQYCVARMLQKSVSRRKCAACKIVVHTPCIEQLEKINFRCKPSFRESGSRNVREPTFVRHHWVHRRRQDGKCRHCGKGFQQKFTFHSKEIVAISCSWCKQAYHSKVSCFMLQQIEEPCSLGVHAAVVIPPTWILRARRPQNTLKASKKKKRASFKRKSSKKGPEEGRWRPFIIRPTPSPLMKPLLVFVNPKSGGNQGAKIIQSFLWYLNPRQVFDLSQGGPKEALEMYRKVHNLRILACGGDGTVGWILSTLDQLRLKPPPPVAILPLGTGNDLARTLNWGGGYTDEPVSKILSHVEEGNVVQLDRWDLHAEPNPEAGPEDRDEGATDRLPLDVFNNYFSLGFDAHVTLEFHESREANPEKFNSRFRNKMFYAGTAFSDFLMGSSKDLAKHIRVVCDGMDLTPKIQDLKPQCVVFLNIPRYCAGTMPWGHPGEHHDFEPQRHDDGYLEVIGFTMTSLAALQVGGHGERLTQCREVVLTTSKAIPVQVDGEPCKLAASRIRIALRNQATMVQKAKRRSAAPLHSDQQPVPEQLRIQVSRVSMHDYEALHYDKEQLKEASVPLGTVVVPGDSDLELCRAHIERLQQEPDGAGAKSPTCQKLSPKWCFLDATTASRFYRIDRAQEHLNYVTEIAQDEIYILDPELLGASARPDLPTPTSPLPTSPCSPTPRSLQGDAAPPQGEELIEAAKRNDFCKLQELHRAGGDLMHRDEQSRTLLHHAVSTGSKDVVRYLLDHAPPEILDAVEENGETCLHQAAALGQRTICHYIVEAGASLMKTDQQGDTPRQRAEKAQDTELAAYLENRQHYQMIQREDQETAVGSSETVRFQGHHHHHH
# Summary of the method: (§1)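 Baculovirus/Sf9-expressed His-tagged human DGKα or DGKζ (5 nM) on extruded liposomes (2 mM PS, 0.25 mM DAG, 2.75 mM PC) in MOPS pH 7.5 with MgCl2, CaCl2 and 150 μM ATP, 1 h.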
# human DGKα = molecular target: T2, human DGKα (Homo sapiens, UniProt P23743); experiment: In vitro DGK inhibition assay, DGKα liposome (LIPGLO) assay; format: biochemical; conditions: read-out: Enzyme Inhibition DGKalpha IC50
# T2 construct: TVMV protease cleavage site (C); Hexa-His (C); made in house; host or cells: Sf9 insect cells (baculovirus)
# T2 sequence (P23743 with tags, fused parts or gaps): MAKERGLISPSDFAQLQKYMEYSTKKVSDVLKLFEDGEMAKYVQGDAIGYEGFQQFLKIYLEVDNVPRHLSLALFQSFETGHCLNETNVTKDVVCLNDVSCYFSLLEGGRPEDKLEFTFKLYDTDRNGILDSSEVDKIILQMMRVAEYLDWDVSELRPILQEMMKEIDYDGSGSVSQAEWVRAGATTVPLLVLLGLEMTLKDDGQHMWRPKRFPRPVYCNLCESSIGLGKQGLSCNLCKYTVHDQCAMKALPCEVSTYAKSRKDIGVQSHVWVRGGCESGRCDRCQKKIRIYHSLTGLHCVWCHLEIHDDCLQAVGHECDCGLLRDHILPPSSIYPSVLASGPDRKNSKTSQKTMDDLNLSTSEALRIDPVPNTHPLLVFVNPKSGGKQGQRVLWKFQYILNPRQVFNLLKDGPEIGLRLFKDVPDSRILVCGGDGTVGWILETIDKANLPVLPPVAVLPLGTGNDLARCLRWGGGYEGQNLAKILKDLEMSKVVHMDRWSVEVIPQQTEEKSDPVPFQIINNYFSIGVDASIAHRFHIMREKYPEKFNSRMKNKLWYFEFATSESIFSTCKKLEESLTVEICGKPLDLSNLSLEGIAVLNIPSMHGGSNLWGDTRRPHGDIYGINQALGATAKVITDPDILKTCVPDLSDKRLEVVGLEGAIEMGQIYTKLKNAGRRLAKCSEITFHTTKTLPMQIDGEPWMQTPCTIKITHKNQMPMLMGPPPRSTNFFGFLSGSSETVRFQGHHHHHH
# Summary of the method: as §1
# DGKzeta = DGKzeta (Homo sapiens, UniProt Q13574); experiment: Translocation DGKzeta; format: cell-based
# Sequence of DGKzeta (Q13574 whole entry): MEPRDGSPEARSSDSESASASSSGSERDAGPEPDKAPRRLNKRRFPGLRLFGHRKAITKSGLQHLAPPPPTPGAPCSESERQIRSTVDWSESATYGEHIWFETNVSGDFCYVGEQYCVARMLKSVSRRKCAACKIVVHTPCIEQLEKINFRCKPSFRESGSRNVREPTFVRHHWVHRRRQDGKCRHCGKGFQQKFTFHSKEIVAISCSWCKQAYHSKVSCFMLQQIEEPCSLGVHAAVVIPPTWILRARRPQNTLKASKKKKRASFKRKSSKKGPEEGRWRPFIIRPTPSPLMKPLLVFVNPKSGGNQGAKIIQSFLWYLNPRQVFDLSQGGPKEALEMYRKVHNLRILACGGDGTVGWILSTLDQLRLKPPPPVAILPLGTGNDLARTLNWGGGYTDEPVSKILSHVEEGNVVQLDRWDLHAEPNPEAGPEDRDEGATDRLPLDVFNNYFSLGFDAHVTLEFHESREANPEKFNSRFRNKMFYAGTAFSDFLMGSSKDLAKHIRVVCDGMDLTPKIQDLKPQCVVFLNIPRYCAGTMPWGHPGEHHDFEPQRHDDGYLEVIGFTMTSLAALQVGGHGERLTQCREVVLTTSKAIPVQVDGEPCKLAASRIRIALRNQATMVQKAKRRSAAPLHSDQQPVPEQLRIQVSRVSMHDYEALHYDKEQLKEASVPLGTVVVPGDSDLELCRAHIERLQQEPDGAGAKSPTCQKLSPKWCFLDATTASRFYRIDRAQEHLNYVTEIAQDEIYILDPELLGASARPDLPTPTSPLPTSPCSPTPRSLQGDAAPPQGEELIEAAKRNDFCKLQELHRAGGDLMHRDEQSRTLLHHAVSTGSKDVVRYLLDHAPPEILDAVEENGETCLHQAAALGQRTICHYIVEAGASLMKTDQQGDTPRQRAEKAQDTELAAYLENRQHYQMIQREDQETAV
SMILES,IC50 (human DGKζ) [µM],IC50 (human DGKα) [µM],EC50 (DGKzeta) [µM]
"Cn1c(=O)cc(N(CC2CC2)c2ccc(C3CCCCC3)cc2)c2nc(C#N)ccc21 [Example 119, 8-((4-cyclohexylphenyl)(cyclopropylmethyl)amino)-5-methyl-6-oxo-5,6-dihydro-1,5-naphthyridine-2-carbonitrile]",12,13,0.041
"Cn1c(=O)cc(N(CC2CC2)c2ccc(C3CCC3)cc2)c2nc(C#N)ccc21 [Example 118, 8-((4-cyclobutylphenyl) (cyclopropylmethyl)amino)-5-methyl-6-oxo-5,6-dihydro-1,5-naphthyridine-2-carbonitrile]",1.3,9.3,0.013
"Cn1c(=O)cc(N(CC2CC2)c2ccc(C#N)nc2)c2nc(C#N)ccc21 [Example 66, 8-((6-cyanopyridin-3-yl)(cyclopropylmethyl)amino)-5-methyl-6-oxo-5,6-dihydro-1,5-naphthyridine-2-carbonitrile]",8.4,17,3
"Cn1c(=O)cc(N(CC2CC2)c2ccc(F)nc2)c2nc(C#N)ccc21 [Example 64, 8-((cyclopropylmethyl)(6-fluoropyridin-3-yl)amino)-5-methyl-6-oxo-5,6-dihydro-1,5-naphthyridine-2-carbonitrile]",3,0.15,1.6
"Cn1c(=O)cc(N(CC2CC2)c2ccc(OC(F)F)c(C#N)c2)c2nc(C#N)ccc21 [Example 63, 8-((3-cyano-4-(difluoromethoxy)phenyl)(cyclopropylmethyl)amino)-5-methyl-6-oxo-5,6-dihydro-1,5-naphthyridine-2-carbonitrile]",12,6.3,1.3
"Cn1c(=O)cc(N(CC2CC2)[C@H]2CC[C@H](c3ccccc3)CC2)c2nc(C#N)ccc21 [Example 121, 8-((cyclopropylmethyl)((1r,4r)-4-phenylcyclohexyl)amino)-5-methyl-6-oxo-5,6-dihydro-1,5-naphthyridine-2-carbonitrile]",18,16,0.29
"Cc1ccccc1-c1cccc(N(CC2CC2)c2cc(=O)n(C)c3ccc(C#N)nc23)c1 [Example 93, 8-((cyclopropylmethyl)(2′-methyl-[1,1′-biphenyl]-3-yl)amino)-5-methyl-6-oxo-5,6-dihydro-1,5-naphthyridine-2-carbonitrile]",9.2,4.2,
"CCCN(CC1CC1)c1nc(=O)n(C)c2ccc(Cl)nc12 [Example 31, 6-chloro-4-((cyclopropylmethyl)(propyl)amino)-1-methylpyrido[3,2-d]pyrimidin-2(1H)-one]",32,1,
"COc1ccc(-c2cccc(N(CC3CC3)c3cc(=O)n(C)c4ccc(C#N)nc34)c2)cc1 [Example 91, 8-((cyclopropylmethyl)(4′-methoxy-[1,1′-biphenyl]-3-yl)amino)-5-methyl-6-oxo-5,6-dihydro-1,5-naphthyridine-2-carbonitrile]",3.2,0.023,
"Cc1cccc(N(C)c2cc(=O)n(C)c3ccc(C#N)nc23)c1 [Example 22, 5-methyl-8-(methyl(m-tolyl)amino)-6-oxo-5,6-dihydro-1,5-naphthyridine-2-carbonitrile]",4.7,1.3,
"COc1ccc(N(C)c2cc(=O)n(C)c3ccc(C#N)nc23)cc1 [Example 24, 8-((4-methoxyphenyl)(methyl)amino)-5-methyl-6-oxo-5,6-dihydro-1,5-naphthyridine-2-carbonitrile]",3.2,0.65,
"CN(C)c1ccc(-c2ccc(N(CC3CC3)c3cc(=O)n(C)c4ccc(C#N)nc34)cc2)cc1 [Example 87, 8-((cyclopropylmethyl)(4′-(dimethylamino)-[1,1′-biphenyl]-4-yl)amino)-5-methyl-6-oxo-5,6-dihydro-1,5-naphthyridine-2-carbonitrile]",2,1.1,
"Cn1c(=O)cc(N(CC2CC2)c2cccc(-c3cccc(O)c3)c2)c2nc(C#N)ccc21 [Example 99, 8-((cyclopropylmethyl)(3′-hydroxy-[1,1′-biphenyl]-3-yl)amino)-5-methyl-6-oxo-5,6-dihydro-1,5-naphthyridine-2-carbonitrile]",31,1.8,
"CCN(c1ccc(OC)cc1)c1cc(=O)n(C)c2ccc(C#N)nc12 [Example 34, 8-(ethyl(4-methoxyphenyl)amino)-5-methyl-6-oxo-5,6-dihydro-1,5-naphthyridine-2-carbonitrile]",2.5,6.5,
"Cn1c(=O)cc(N(CC2CC2)c2cccc(-c3ccccc3Cl)c2)c2nc(C#N)ccc21 [Example 97, 8-((2′-chloro-[1,1′-biphenyl]-3-yl)(cyclopropylmethyl)amino)-5-methyl-6-oxo-5,6-dihydro-1,5-naphthyridine-2-carbonitrile]",8,1.9,
"Cc1ccccc1-c1ccc(N(CC2CC2)c2cc(=O)n(C)c3ccc(C#N)nc23)cc1 [Example 75, 8-((cyclopropylmethyl)(2′-methyl-[1,1′-biphenyl]-4-yl)amino)-5-methyl-6-oxo-5,6-dihydro-1,5-naphthyridine-2-carbonitrile]",0.88,3.3,
"CN(c1ccc(C(F)(F)F)cc1)c1cc(=O)n(C)c2ccc(C#N)nc12 [Example 33, 5-methyl-8-(methyl(4-(trifluoromethyl)phenyl)amino)-6-oxo-5,6-dihydro-1,5-naphthyridine-2-carbonitrile]",4.1,6.1,
"C#CCn1c(=O)c(C#N)c(N(C)C2CCCCC2)c2nc(C#N)ccc21 [Example 17, 8-[cyclohexyl(methyl)amino]-6-oxo-5-(prop-2-yn-1-yl)-5,6-dihydro-1,5-naphthyridine-2,7-dicarbonitrile]",3.6,2,
"Cn1c(=O)cc(N(CC2CC2)c2ccc(-c3ccccc3O)cc2)c2nc(C#N)ccc21 [Example 80, 8-((cyclopropylmethyl)(2′-hydroxy-[1,1′-biphenyl]-4-yl)amino)-5-methyl-6-oxo-5,6-dihydro-1,5-naphthyridine-2-carbonitrile]",1.3,6.3,
"Cn1c(=O)cc(N(CC2CC2)c2cccc(-c3ccc(CNS(C)(=O)=O)cc3)c2)c2nc(C#N)ccc21 [Example 102, N-((3′-((6-cyano-1-methyl-2-oxo-1,2-dihydro-1,5-naphthyridin-4-yl)(cyclopropylmethyl)amino)-[1,1′-biphenyl]-4-yl)methyl)methanesulfonamide]",3.5,0.18,
"Cn1c(=O)cc(N(CC2CC2)c2cccc(-c3cccc(CNS(C)(=O)=O)c3)c2)c2nc(C#N)ccc21 [Example 105, N-((3′-((6-cyano-1-methyl-2-oxo-1,2-dihydro-1,5-naphthyridin-4-yl) (cyclopropylmethyl)amino)-[1,1′-biphenyl]-3-yl)methyl)methanesulfonamide]",4.4,33,
"CN(C)c1ccc(-c2cccc(N(CC3CC3)c3cc(=O)n(C)c4ccc(C#N)nc34)c2)cc1 [Example 107, 8-((cyclopropylmethyl)(4′-(dimethylamino)-[1,1′-biphenyl]-3-yl)amino)-5-methyl-6-oxo-5,6-dihydro-1,5-naphthyridine-2-carbonitrile]",2,0.022,
"COc1cccc(-c2cccc(N(CC3CC3)c3cc(=O)n(C)c4ccc(C#N)nc34)c2)c1 [Example 95, 8-((cyclopropylmethyl)(3′-methoxy-[1,1′-biphenyl]-3-yl)amino)-5-methyl-6-oxo-5,6-dihydro-1,5-naphthyridine-2-carbonitrile]",6.2,2,
"Cn1c(=O)cc(N(CC2CC2)c2cccc(OC(F)(F)F)c2)c2nc(C#N)ccc21 [Example 43, 8-((cyclopropylmethyl)(3-(trifluoromethoxy)phenyl)amino)-5-methyl-6-oxo-5,6-dihydro-1,5-naphthyridine-2-carbonitrile]",26,1.1,
"Cc1ccc(-c2ccc(N(CC3CC3)c3cc(=O)n(C)c4ccc(C#N)nc34)cc2)cc1 [Example 69, 8-((cyclopropylmethyl)(4′-methyl-[1,1′-biphenyl]-4-yl)amino)-5-methyl-6-oxo-5,6-dihydro-1,5-naphthyridine-2-carbonitrile]",7.5,5.5,
"CN(c1ccc(F)c(F)c1)c1cc(=O)n(C)c2ccc(C#N)nc12 [Example 28, 8-((3,4-difluorophenyl)(methyl)amino)-5-methyl-6-oxo-5,6-dihydro-1,5-naphthyridine-2-carbonitrile]",120,0.44,
"Cn1c(=O)nc(N(CC2CC2)c2ccc(C3CC3)cc2)c2nc(Cl)ccc21 [Example 58, 6-chloro-4-((cyclopropylmethyl) (4-cyclopropylphenyl)amino)-1-methylpyrido[3,2-d]pyrimidin-2(1H)-one]",1,3.8,
"CN(c1cccc(-c2ccc(C3CC3)cc2)c1)c1cc(=O)n(C)c2ccc(C#N)nc12 [Example 4, 8-((4′-cyclopropyl-[1,1′-biphenyl]-3-yl)(methyl)amino)-5-methyl-6-oxo-5,6-dihydro-1,5-naphthyridine-2-carbonitrile]",> 38,0.049,
"COc1ccc(N(CC2CC2)c2cc(=O)n(C)c3ccc(C#N)nc23)cc1 [Example 36, 8-((cyclopropylmethyl)(4-methoxyphenyl)amino)-5-methyl-6-oxo-5,6-dihydro-1,5-naphthyridine-2-carbonitrile]",0.8,0.89,
"Cn1c(=O)cc(N(CC2CC2)c2cccc(-c3ccccc3)c2)c2nc(C#N)ccc21 [Example 70, 8-([1,1′-biphenyl]-3-yl(cyclopropylmethyl)amino)-5-methyl-6-oxo-5,6-dihydro-1,5-naphthyridine-2-carbonitrile]",27,0.17,
